Earlier results as cited in patent publication US20120078160A1, “METHOD AND APPARATUS FOR CANCER THERAPY” (Gradiant Research, LLC, priority 2009, published 2012).

pKa: 7.93
Koct, octanol water partition coefficient (pH 7.4): 0.129
SMILES: O=c1[nH]cc(F)c(=O)[nH]1 [5FU, 5-fluorouracil]
